One assay relates to platelet aggregation. The experiment in a line: Inhibition of platelet aggregation (collagen-induced, Born and Cross, platelet-rich plasma of healthy volunteers). The format is cell-based. The conditions noted are these: 10 minutes preincubation at 37° C. On the procedure: In order to do this, donor blood is taken from an anticubital vein and anticoagulated with trisodium citrate (final concentration 13 mM). The blood is centrifuged for 10 minutes at 170×g and the supernatant platelet-rich plasma (PRP) is removed. The remaining blood is vigorously centrifuged once more in order to obtain plasma. The PRP is diluted 1:10 with autologous plasma. 750 μl are incubated with 50 μl of physiological saline solution, 100 μl of test substance solution, 50 μl of ^14 C-sucrose (3,700 Bq) and 50 μl of ^3 H-BIBU 52 (final concentration: 5 nM) at ambient temperature for 20 minutes. In order to measure the non-specific binding, 5μl of BIBU 52 (final concentration: 30 μM) are used instead of the test substance. The samples are centrifuged for 20 seconds at 10,000×g and the supernatant is poured off. 100 μl thereof are measured in order to determine the free ligand. The pellet is dissolved in 500 μl of 0.2N NaOH, 450 μl are mixed with 2 ml of scintillator and 25 μl of 5N HCl and measured. The residual plasma remaining in the pellet is determined from the ^14 C-content and the bound ligand is determined from the ^3 H-measurement. After the non-specific binding has been deducted, the pellet activity is plotted against the concentration of the test substance and the concentration for 50% inhibition of binding is determined. 2. Antithrombotic activity The thrombocyte aggregation is measured using the method of Born and Cross (J. Physiol. 170: 397 (1964)) in platelet-rich plasma taken from healthy volunteers. To inhibit coagulation the blood is mixed with 3.14% sodium citrate in a volume ratio of 1:10. The pattern of the decrease in optical density of the platelet suspension is photometrically measured and recorded after the addition of the aggregation-triggering substance. The rate of aggregation is determined from the angle of inclination of the density curve. The point on the curve where there is maximum light transmittance is used to calculate the optical density. The concentration of collagen used is as small as possible but sufficient to produce an irreversible reaction curve. Standard commercial collagen produced by Hormonchemie of Munich is used. Before the addition of the collagen the plasma is incubated for 10 minutes with the substance at 37° C. From the concentration/activity curve an EC50 is determined, which describes the concentration giving a 50% change in the optical density in terms of the inhibition of aggregation.

For the next assay, the target named is human thrombocytes. The experiment in a line: Competitive binding of ^3 H-BIBU 52/test substance to human thrombocytes. The conditions noted are these: human thrombocytes in plasma; ^3 H-BIBU 52 5 nM; ambient temperature, 20 minutes. On the procedure:
1. Competitive binding of ^3 H-BIBU 52/test substance to human thrombocytes: […] Case 5/1093-FL), which replaces the ^125 I fibrinogen ligand known from the literature and various concentrations of the substance to be tested. The free and bound ligand is separated by centrifuging and quantified by scintillation counting. The inhibition of ^3 H-BIBU 52 binding by the test substance is determined from the measurements obtained. In order to do this, donor blood is taken from an anticubital vein and anticoagulated with trisodium citrate (final concentration 13 mM). The blood is centrifuged for 10 minutes at 170×g and the supernatant platelet-rich plasma (PRP) is removed. The remaining blood is vigorously centrifuged once more in order to obtain plasma. The PRP is diluted 1:10 with autologous plasma. 750 μl are incubated with 50 μl of physiological saline solution, 100 μl of test substance solution, 50 μl of ^14 C-sucrose (3,700 Bq) and 50 μl of ^3 H-BIBU 52 (final concentration: 5 nM) at ambient temperature for 20 minutes. In order to measure the non-specific binding, 5μl of BIBU 52 (final concentration: 30 μM) are used instead of the test substance. The samples are centrifuged for 20 seconds at 10,000×g and the supernatant is poured off. 100 μl thereof are measured in order to determine the free ligand. The pellet is dissolved in 500 μl of 0.2N NaOH, 450 μl are mixed with 2 ml of scintillator and 25 μl of 5N HCl and measured. The residual plasma remaining in the pellet is determined from the ^14 C-content and the bound ligand is determined from the ^3 H-measurement. After the non-specific binding has been deducted, the pellet activity is plotted against the concentration of the test substance and the concentration for 50% inhibition of binding is determined. 2. Antithrombotic activity

Counter-ions that a name gives are not always drawn.

For the molecule `COC(=O)[C@H]1CC[C@H](NC(=O)N2CCC(c3ccc(C(=N)N)cc3)CC2)CC1` [1(5), 4-(4-amidinophenyl)-1-[N-[trans-4-(methoxycarbonyl)-cyclohexyl]-aminocarbonyl]-piperidine-hydrochloride], a half-maximal effect with platelet aggregation (Homo sapiens, Platelet) (EC50) was put at 0.08 µM. The molecule also gave an IC50 on human thrombocytes of 1.2 µM.
For `NCc1ccc(N2CCC(C(=O)N[C@H]3CC[C@H](C(=O)O)CC3)CC2)cc1` [3(17), 1-(4-aminomethylphenyl)-4-[N-(trans-4-carboxycyclo-hexyl)-aminocarbonyl]-piperidine-hydrochloride], the EC50 with platelet aggregation (Homo sapiens, Platelet) was 0.18 µM. The IC50 at human thrombocytes came out at 0.074 µM.
In the case of `N=C(N)c1ccc(C2CCN(C(=O)N[C@H]3CC[C@H](C(=O)O)CC3)CC2)cc1` [2(3), 4-(4-amidinophenyl)-1-[N-(trans-4-carboxycyclohexyl)-aminocarbonyl]-piperidine-hydrochloride], the EC50 with platelet aggregation (human platelet-rich plasma) amounted to 0.03 µM. The 50% inhibitory concentration (IC50) at human thrombocytes worked out at 0.0045 µM.
Take `NCc1ccc(C2CCN(C(=O)N[C@H]3CC[C@H](C(=O)O)CC3)CC2)cc1` [2(11), 4-(4-aminomethylphenyl)-1-[N-(trans-4-carboxycyclohexyl)-aminocarbonyl]-piperidine-hydrochloride]: in the assay on platelet aggregation (Homo sapiens, Platelet), the EC50 came to 0.38 µM. The same molecule had an IC50 at human thrombocytes of 0.23 µM.
Turning to `CCOC(=O)[C@H]1CC[C@H](NC(=O)N2CCN(c3ccc(C(=N)N)cc3)CC2)CC1` [Example 8, 1-(4-Amidinophenyl)-4-[N-[trans-4-(ethoxycarbonyl)-cyclohexyl]-aminocarbonyl]-piperazine-dihydrochloride], the EC50 in the assay with platelet aggregation (Homo sapiens, Platelet) came out at 0.19 µM. On human thrombocytes, this molecule yielded an IC50 of 0.54 µM.
`N=C(N)c1ccc(N2CCN(C(=O)N3CCC(CC(=O)O)CC3)CC2)cc1` [2(17), 1-(4-amidinophenyl)-4-[4-(carboxymethyl)-piperidinocarbonyl]-piperazine-dihydrochloride] yielded an EC50 with platelet aggregation (Homo sapiens, Platelet) of 0.13 µM. For the same molecule, at human thrombocytes, the IC50 was determined as 0.044 µM.
The corresponding values for `N=C(N)c1ccc(N2CCC(C(=O)N(CCc3ccccc3)[C@H]3CC[C@H](C(=O)O)CC3)CC2)cc1` [3(24), 1-(4-amidinophenyl)-4-[N-(trans-4-carboxycyclohexyl)-N-(2-phenylethyl)-aminocarbonyl]-piperidine] are 0.11 µM and 0.0091 µM.
`COC(=O)[C@H]1CC[C@H](N(C)C(=O)N2CCN(c3ccc(C(=N)N)cc3)CC2)CC1` [1(1), 1-(4-amidinophenyl)-4-[N-[trans-4-(methoxycarbonyl)-cyclohexyl]-N-methyl-aminocarbonyl]-piperazine-hydrochloride]: the concentration giving a half-maximal response (EC50) with platelet aggregation (Homo sapiens, Platelet) turned out to be 0.11 µM. The IC50 on human thrombocytes stood at 0.87 µM.
Turning to `N=C(N)c1ccc(N2CCC(CC(=O)NCCC(=O)O)CC2)cc1` [3(12), 1-(4-amidinophenyl) -4-[N-(2-carboxyethyl)-amino-carbonylmethyl]-piperidine], a half-maximal effect in the assay with platelet aggregation (Homo sapiens, Platelet) (EC50) was put at 0.29 µM. In addition, the half-maximal inhibitory concentration (IC50) at human thrombocytes was 0.18 µM.
`COC(=O)[C@H]1CC[C@H](N(C)C(=O)N2CCN(c3ccc(C(=N)N)cn3)CC2)CC1` [1(9), 1-(5-amidinopyrid-2-yl)-4-[N-[trans-4-(methoxycarbonyl)-cyclohexyl]-N-methyl-aminocarbonyl]-piperazine-hydrochloride] displayed an EC50 with platelet aggregation (Homo sapiens, Platelet) of 0.09 µM. Further, the IC50 on human thrombocytes was determined as 17 µM.
For `N=C(NC(=O)OCc1ccccc1)c1ccc(N2CCN(C(=O)N[C@H]3CC[C@H](C(=O)O)CC3)CC2)cc1` [3(1), 1-[4-(N-benzyloxycarbonyl-amidino)-phenyl]-4-[N-(trans-4-carboxycyclohexyl)-aminocarbonyl]-piperazine], in that order: 0.66 µM and 0.23 µM.
As for `CN(C(=O)N1CCN(c2ccc(C(=N)N)cc2)CC1)[C@H]1CC[C@H](C(=O)O)CC1` [2(1), 1-(4-amidinophenyl)-4-[N-(trans-4-carboxycyclohexyl)-N-methyl-aminocarbonyl]-piperazine-dihydrochloride], the EC50 in the assay on platelet aggregation (Homo sapiens, Platelet) was determined as 0.04 µM. Further, the IC50 on human thrombocytes worked out at 0.018 µM.
For `CCCCCN(C(=O)C1CCN(c2ccc(C(=N)N)cc2)CC1)[C@H]1CC[C@H](C(=O)O)CC1` [3(26), 1-(4-amidinophenyl)-4-[N-(trans-4-carboxycyclohexyl)-N-(n-pentyl)-aminocarbonyl]-piperidine], a half-maximal effect with platelet aggregation (Homo sapiens, Platelet) (EC50) was put at 0.065 µM. For the same molecule, the IC50 at human thrombocytes came to 0.012 µM.
The molecule `COC(=O)CC1CCN(C(=O)N2CCN(c3ccc(C(=N)N)cc3)CC2)CC1` [1(25), 1-(4-amidinophenyl)-4-[4-(methoxycarbonylmethyl)-piperidinocarbonyl]-piperazine-hydrochloride] came in with an EC50 in the assay on platelet aggregation (Homo sapiens, Platelet) of 6.8 µM. For the same molecule, on human thrombocytes, the IC50 amounted to 30 µM.
Molecule `NCc1ccc(N2CCN(C(=O)N[C@H]3CC[C@H](C(=O)O)CC3)CC2)nc1` [2(22), 1-(5-aminomethylpyrid-2-yl)-4-[N-(trans-4-carboxycyclohexyl)-aminocarbonyl]-piperazine-dihydrochloride] displayed an EC50 with platelet aggregation (Homo sapiens, Platelet) of 0.68 µM. Also, the concentration for half-maximal inhibition (IC50) on human thrombocytes stood at 0.31 µM.
`N=C(N)c1ccc(N2CCN(C(=O)N3CC=C(CC(=O)O)CC3)CC2)cc1` [2(19), 1-(4-amidinophenyl)-4-[4-(carboxymethyl)-3,4-dehydro-piperidinocarbonyl]-piperazine-dihydrochloride] showed an EC50 in the assay with platelet aggregation (Homo sapiens, Platelet) of 0.62 µM. The IC50 at human thrombocytes was 0.37 µM.
For `N=C(N)c1ccc(N2CCC(C(=O)N3CCC(CC(=O)O)CC3)CC2)cc1` [3(4), 1-(4-amidinophenyl)-4-[4-(carboxymethyl)-piperidino-carbonyl]-piperidine], in that order: 0.1 µM and 0.078 µM.
`N=C(N)c1ccc(C2CCN(C(=O)N[C@H]3CC[C@H](C(=O)O)CC3)CC2)cc1` [3(2), 4-(4-amidinophenyl)-1-[N-(trans-4-carboxycyclohexyl)-aminocarbonyl]-piperidine]: the EC50 in the assay on platelet aggregation (human platelet-rich plasma) stood at 0.1 µM. At human thrombocytes, this molecule showed an IC50 of 0.014 µM.
For the molecule `N=C(N)c1ccc(N2CCN(C(=O)N(Cc3ccccc3)[C@H]3CC[C@H](C(=O)O)CC3)CC2)cc1` [2(6), 1-(4-amidinophenyl)-4-[N-benzyl-N-(trans-4-carboxycyclohexyl)-aminocarbonyl]-piperazine-dihydrochloride], the EC50 with platelet aggregation (Homo sapiens, Platelet) was 0.04 µM. Besides, on human thrombocytes, the IC50 was determined as 0.0015 µM.
In turn, `CC(C)OC(=O)[C@H]1CC[C@H](NC(=O)N2CCN(c3ccc(C(=N)N)cc3)CC2)CC1` [Example 7, 1-(4-Amidinophenyl)-4-[N-[trans-4-(isopropoxycarbonyl)-cyclohexyl]-aminocarbonyl]-piperazine-dihydrochloride] showed an EC50 in the assay on platelet aggregation (Homo sapiens, Platelet) of 0.28 µM. For the same molecule, the IC50 on human thrombocytes was 1.2 µM.
In turn, `N=C(N)c1ccc(N2CCC(C(=O)N[C@H]3CC[C@H](C(=O)O)CC3)CC2)nc1` [2(2), 1-(5-amidinopyrid-2-yl)-4-[N-(trans-4-carboxycyclohexyl)-aminocarbonyl]-piperidine-dihydrochloride] had a 50% effective concentration (EC50) in the assay on platelet aggregation (Homo sapiens, Platelet) of 0.09 µM. This molecule came in with a concentration for half-maximal inhibition (IC50) at human thrombocytes of 0.047 µM.
With `N=C(N)c1ccc(N2CCC(C(=O)N3CCC(CC(=O)O)CC3)CC2)nc1` [2(42), 1-(5-amidinopyrid-2-yl)-4-[4-(carboxymethyl)-piperidinocarbonyl]-piperidine-dihydrochloride], a half-maximal response in the assay on platelet aggregation (Homo sapiens, Platelet) (EC50) required 0.17 µM. This molecule returned an IC50 at human thrombocytes of 0.1 µM.
For `COC(=O)[C@H]1CC[C@H](NC(=O)N2CCN(c3ccc(CN)cc3)CC2)CC1` [Example 4, 1-(4-Aminomethylphenyl)-4-[N-[trans-4-(methoxycarbonyl)-cyclohexyl]-aminocarbonyl]-piperazine-hydrochloride], in that order: 4.3 µM and 5.3 µM.
